These results are taken from ChEMBL document CHEMBL5131466, “Discovery and development of labdane-oxindole hybrids as small-molecule inhibitors against chikungunya virus infection” (Eur J Med Chem, 2022).

The source made the active and inactive calls. The calls are words filed in the database; no cut-off is given here. Bounds are passed on as bounds.

As a reminder, the EC50 is the concentration at which the effect is half-maximal. What is called CC50 is the concentration giving 50% cytotoxicity.

For data set [1], the system named is Chikungunya virus. The experiment in a line: Antiviral activity against CHIKV 6708 infected in hamster BHK-21 cells assessed as reduction in virus titer in cells. Format: functional, organism-based. The settings on record: Chikungunya virus, 6708, BHK-21.
Data set [2] deals with Chikungunya virus. The experiment in a line: Antiviral activity against CHIKV 122508 mutant infected in hamster BHK-21cells assessed as log reduction in viral titer at 80 uM measured after 14 passage. Format: functional, organism-based.
The subject of data set [3] is Chikungunya virus. Kind of data set: Antiviral activity against CHIKV 122508 infected in human HeLa CCL2 cells assessed as inhibition of viral replication at MOI of 1 at 80 uM incubated for 24 hpi by viral plaque assay. The data set is classed as functional. Set-up: unit not given here. The conditions noted are these: time 24 hrs.
Data set [4] can be described thus: Selectivity index, ratio of CC50 for cytotoxicity against human HeLa CCL2 cells to EC50 for antiviral activity against CHIKV 122508 infected in human HeLa CCL2 cells. The data set is classed as toxicity, cell-based. The settings on record: read-out: Ratio CC50/EC50.
Data set [5] can be described thus: Cytotoxicity against human HeLa CCL2 cells assessed as reduction in cell viability measured after 24 hrs by Alamar blue assay. The data set is classed as functional.
Data set [6] relates to Chikungunya virus. The experiment in a line: Antiviral activity against CHIKV 6708 infected in hamster BHK-21 cells assessed as reduction in viral titer at 80 uM post treatment. The data set is classed as functional, organism-based.
The test system of data set [7] is Chikungunya virus. Kind of data set: Antiviral activity against CHIKV 122508 infected in human HeLa CCL2 cells assessed as inhibition of viral replication at MOI of 1 at 40 uM pretreated with compound for 2 hr prior to viral infection by viral plaque assay (reference value: 6.2 %). Format: functional.
A short description of data set [8]: Selectivity index, ratio of CC50 for Cytotoxicity against hamster BHK-21 cells to EC50 for Antiviral activity against CHIKV 6708 infected in hamster BHK-21 cells. Format: toxicity, cell-based. The conditions noted are these: read-out: Ratio CC50/EC50.
A further data set deals with BHK-21. The experiment in a line: Cytotoxicity against hamster BHK-21 cells assessed as reduction in cell viability. Format: functional. The conditions noted are these: Mesocricetus auratus.
Data set [9] relates to Chikungunya virus. Kind of data set: Antiviral activity against CHIKV 122508 infected in […] BHK-21 cells assessed as reduction in viral titer at MOI of 1 measured after 24 hpi by viral plaque assay. Format: functional, organism-based. The conditions noted are these: Chikungunya virus, 122508, BHK-21.
For data set [10], the system named is Chikungunya virus. The experiment in a line: Antiviral activity against CHIKV 122508 infected in human HeLa CCL2 cells assessed as inhibition of viral replication at MOI of 1 at 80 uM pretreated for 2 hrs followed by viral infection measured after 1.5 hrs by viral plaque assay (reference value: 6.2). Format: functional. The conditions noted are these: time 3.5 hrs.

Data set [11] concerns Chikungunya virus. Kind of data set: Antiviral activity against CHIKV 122508 infected in human HeLa CCL2 cells assessed as inhibition of viral replication at MOI of 1 at 20 uM incubated for 24 hpi by viral plaque assay. The data set is classed as functional. The conditions noted are these: time 24 hrs.
For data set [12], the system named is Chikungunya virus. The experiment in a line: Antiviral activity against CHIKV 122508 infected in human HeLa CCL2 cells assessed as inhibition of viral replication at MOI of 1 at 5 uM incubated for 24 hpi by viral plaque assay. The data set is classed as functional. The conditions noted are these: time 24 hrs.
Data set [13] concerns Chikungunya virus. The experiment in a line: Antiviral activity against CHIKV 122508 infected in human HeLa CCL2 cells assessed as inhibition of viral replication at MOI of 1 at 100 uM incubated for 24 hpi by viral plaque assay. Format: functional. Set-up: unit not given here. The conditions noted are these: time 24 hrs.
Data set [14] deals with Chikungunya virus. The experiment in a line: Antiviral activity against CHIKV 122508 infected in human HeLa CCL2 cells assessed as inhibition of viral replication at MOI of 1 at 1 uM incubated for 24 hpi by viral plaque assay. Format: functional. The settings on record: time 24 hrs.
Data set [15] has as its system Chikungunya virus. Kind of data set: Antiviral activity against CHIKV 122508 infected in human HeLa CCL2 cells assessed as inhibition of viral replication at MOI of 1 incubated for 24 hpi by immunofluorescence assay. Format: functional, organism-based. The settings on record: Chikungunya virus, 122508, HeLa CCL2.

With `C=C1CC[C@H]2C(C)(C)CCC[C@]2(C)[C@H]1C/C=C1/C(=O)Nc2c(Cl)cccc21`, the EC50 with Chikungunya virus [1] is 0.14 µM; in the data set on Chikungunya virus [9] it was 1.55 µM. Moreover, the outcome in the data set on Chikungunya virus [2] and in the data set on Chikungunya virus [6] was Active. In addition, the figures for the Activity in the data set with Chikungunya virus [3], in the data set on Chikungunya virus [7] and in the data set with Chikungunya virus [10] were 3.9, 5.2 and 4.6, respectively. For the same molecule, the selectivity ratio in data set [4] came to 83; in [8], 714. For the same molecule, the results for the CC50 (in data set [5]; in the data set on BHK-21) were 130 µM and over 100 µM, respectively.

Take `C=C1CC[C@H]2C(C)(C)CCC[C@]2(C)[C@H]1C/C=C1/C(=O)Nc2c(OC)cccc21`: the Activity in the data set with Chikungunya virus [3] is recorded as 2.6. Moreover, the selectivity ratio in data set [4] stood at 602. Also, in data set [5], the CC50 was 90.2 µM. Also, in the data set with Chikungunya virus [9], the EC50 was 0.15 µM.

With `C=C1CC[C@H]2C(C)(C)CCC[C@]2(C)[C@H]1C/C=C1/C(=O)Nc2c(F)cccc21`, in data set [4], the selectivity ratio is 4070. Further, the CC50 in [5] is 81.4 µM. In addition, the Activity in the data set with Chikungunya virus [11] amounted to 2.3. The EC50 in the data set on Chikungunya virus [9] stood at 0.02 µM.

For the molecule `C=C1CC[C@H]2C(C)(C)CCC[C@]2(C)[C@H]1C/C=C1\C(=O)Nc2ccc(C)cc21`, in data set [4], the selectivity ratio came to 461. In data set [5], the half-maximal cytotoxic concentration (CC50) was 13.8 µM. For the same molecule, the EC50 in the data set on Chikungunya virus [9] was determined as 0.03 µM. For the same molecule, in the data set on Chikungunya virus [12], the Activity stood at 0.9.

`C=C1CC[C@H]2C(C)(C)CCC[C@]2(C)[C@H]1C/C=C1\C(=O)NC(=O)c2ccccc21`: the selectivity ratio in data set [4] was over 347. For the same molecule, the CC50 in data set [5] is over 100 µM. Moreover, the EC50 with Chikungunya virus [9] came out at 0.29 µM. In addition, the Activity in the data set on Chikungunya virus [13] was determined as 3.8.

For the molecule `C=C1[C@H](O)C[C@H]2C(C)(C)CCC[C@]2(C)[C@H]1C/C=C1/C(=O)Nc2c(Cl)cccc21`, in [4], the selectivity ratio was 6100. Besides, in data set [5], the CC50 was 6.1 µM. In addition, in the data set on Chikungunya virus [14], the Activity is recorded as 1.1. The EC50 in the data set on Chikungunya virus [9] came to 0.001 µM.

Consider `C=C1CC[C@H]2C(C)(C)CCC[C@]2(C)[C@H]1C/C=C1\C(=O)Nc2ncccc21`, for which, in [4], the selectivity ratio stood at 870. Further, the CC50 in [5] turned out to be 34.8 µM. For the same molecule, in the data set on Chikungunya virus [11], the Activity is recorded as 1.7. For the same molecule, the EC50 in the data set with Chikungunya virus [9] came out at 0.04 µM.

Regarding `C=C1CC[C@H]2C(C)(C)CCC[C@]2(C)[C@H]1C/C=C1/C(=O)Nc2ccc(F)cc21`, the selectivity ratio in data set [4] worked out at 94. Also, the CC50 in [5] was determined as 5.6 µM. Also, the EC50 in the data set on Chikungunya virus [9] was determined as 0.06 µM. For the same molecule, in the data set with Chikungunya virus [12], the Activity was 1.5.

On to `C=C1CC[C@H]2C(C)(C)CCC[C@]2(C)[C@H]1C/C=C1/C(=O)Nc2c(C)cccc21`, for which the Activity in the data set on Chikungunya virus [3] is reported as 1.3. Further, the selectivity ratio in [4] was found to be 230. The CC50 in data set [5] amounted to 142 µM. The EC50 in the data set with Chikungunya virus [9] is 0.62 µM.

Regarding `C=C1CC[C@H]2C(C)(C)CCC[C@]2(C)[C@H]1C/C=C1\C(=O)Nc2c(C)cccc21`, the selectivity ratio in data set [4] is over 667. Further, the CC50 in [5] was over 100 µM. In addition, in the data set with Chikungunya virus [9], the EC50 was 0.15 µM. Further, in the data set with Chikungunya virus [13], the Activity was 2.8.

With `C=C1CC[C@H]2C(C)(C)CCC[C@]2(C)[C@H]1C/C=C1\C(=O)Nc2c(Br)cccc21`, the selectivity ratio in [4] was over 90. Also, in data set [5], the CC50 is over 100 µM. The half-maximal effective concentration (EC50) in the data set with Chikungunya virus [9] worked out at 1.12 µM. Besides, the Activity in the data set with Chikungunya virus [13] was determined as 2.3.

On to `C=C1CC[C@H]2C(C)(C)CCC[C@]2(C)[C@H]1C/C=C1/C(=O)Nc2c(Cl)cc(F)cc21`, for which the Activity in the data set with Chikungunya virus [3] stood at 2.7. In addition, in [4], the selectivity ratio came to 1680. The CC50 in data set [5] was found to be 134 µM. Moreover, the EC50 in the data set with Chikungunya virus [9] was found to be 0.08 µM.

Consider `C=C1CC[C@@H]2[C@](C)(CO)[C@H](O)CC[C@@]2(C)[C@@H]1C/C=C1/C(=O)OC[C@H]1O` [ANDROGRAPHOLIDE], for which the EC50 in the data set with Chikungunya virus [15] amounted to 77 µM.

As for `C=C1CC[C@H]2C(C)(C)CCC[C@]2(C)[C@H]1C/C=C1/C(=O)Nc2cc(C)ccc21`, in [4], the selectivity ratio amounted to 12700. Moreover, the CC50 in data set [5] was 25.4 µM. In addition, the EC50 with Chikungunya virus [9] is 0.002 µM. Besides, in the data set with Chikungunya virus [12], the Activity was determined as 1.2.

Consider `C=C1CC[C@@H]2[C@](C)(CO)[C@H](O)CC[C@@]2(C)[C@@H]1C/C=C1/C(=O)Nc2ccccc21`, for which the EC50 turned out to be 5.5 µM in the data set with Chikungunya virus [15] and 5.52 µM in the data set with Chikungunya virus [9]. Besides, in data set [4], the selectivity ratio came to 14. For the same molecule, the CC50 in [5] was 76.9 µM.

As to `C=C1CC[C@H]2C(C)(C)CCC[C@]2(C)[C@H]1C/C=C1\C(=O)Nc2c(Cl)cc(F)cc21`, the selectivity ratio in data set [4] was over 1350. The CC50 in data set [5] was over 100 µM. The EC50 in the data set on Chikungunya virus [9] stood at 0.07 µM. Also, the Activity in the data set with Chikungunya virus [13] came to 2.6.
